ChEMBL document CHEMBL1909046, “DrugMatrix in vitro pharmacology data”

Key:
[1] = target: Beta-2 adrenergic receptor (Homo sapiens, UniProt P07550); assay: DRUGMATRIX: Adrenergic beta2 radioligand binding (ligand: [3H] CGP-12177); assay type: cell membranes, CHO, Membrane; details: Not Active = under 50% inhibition at 10 µM
[2] = target: Carbonic anhydrase 2 (Homo sapiens, UniProt P00918); assay: DRUGMATRIX: Carbonic Anhydrase II enzyme inhibition (substrate: 4-Nitrophenyl acetate (4-NPA)); assay type: tissue-based; details: erythrocyte; Not Active = under 50% inhibition at 10 µM
[3] = DRUGMATRIX: Interleukin IL-1 radioligand binding (ligand: [125I] interleukin 1beta); assay type: cell membranes, Membrane; details: nih3t3; Not Active = under 50% inhibition at 10 µM
[4] = target: T1, Neuropeptide Y receptor type 1 (Homo sapiens, UniProt P25929); assay type: cell membranes, Membrane; details: sk-n-mc; further: in other assays of this panel Not Active means under 50% inhibition at 10 µM
T1 sequence (P25929 whole entry): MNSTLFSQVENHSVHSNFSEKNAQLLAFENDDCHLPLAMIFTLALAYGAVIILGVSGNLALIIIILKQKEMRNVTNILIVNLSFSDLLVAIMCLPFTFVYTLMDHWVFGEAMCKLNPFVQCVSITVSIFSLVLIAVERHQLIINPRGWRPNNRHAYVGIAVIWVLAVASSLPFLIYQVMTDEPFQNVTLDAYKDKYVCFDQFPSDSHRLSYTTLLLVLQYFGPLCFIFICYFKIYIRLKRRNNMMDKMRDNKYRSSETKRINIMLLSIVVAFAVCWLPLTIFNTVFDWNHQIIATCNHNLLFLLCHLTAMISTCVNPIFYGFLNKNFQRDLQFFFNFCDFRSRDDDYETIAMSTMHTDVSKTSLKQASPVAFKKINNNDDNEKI

[5] = DRUGMATRIX: Phosphodiesterase PDE4 enzyme inhibition (substrate: [3H]cAMP + cAMP); details: u-937; Not Active = under 50% inhibition at 10 µM
[6] = target: Mitogen-activated protein kinase 14 (Homo sapiens, UniProt Q16539); parameters: species or system Escherichia coli;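 further: inhibition of p38alpha enzyme activity in a biochemical kinase assay, with myelin basic protein serving as substrate; in other assays of this panel Not Active means under 50% inhibition at 10 µM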
Mitogen-activated protein kinase 14, sequence (Q16539 whole entry): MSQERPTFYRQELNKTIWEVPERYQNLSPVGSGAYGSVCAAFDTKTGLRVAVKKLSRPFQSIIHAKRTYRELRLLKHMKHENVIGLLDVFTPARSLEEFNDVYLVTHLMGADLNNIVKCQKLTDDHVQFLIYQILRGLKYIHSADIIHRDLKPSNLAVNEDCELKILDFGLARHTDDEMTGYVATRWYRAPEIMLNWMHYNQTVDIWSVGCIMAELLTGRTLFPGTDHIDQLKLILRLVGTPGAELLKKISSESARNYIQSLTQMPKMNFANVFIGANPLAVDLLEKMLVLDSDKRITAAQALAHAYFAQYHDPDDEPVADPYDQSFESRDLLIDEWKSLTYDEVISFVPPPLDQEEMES

[7] = target: Estrogen receptor beta (Homo sapiens, UniProt Q92731); details: sf9; further: in other assays of this panel Not Active means under 50% inhibition at 10 µM
Estrogen receptor beta, sequence (Q92731 whole entry): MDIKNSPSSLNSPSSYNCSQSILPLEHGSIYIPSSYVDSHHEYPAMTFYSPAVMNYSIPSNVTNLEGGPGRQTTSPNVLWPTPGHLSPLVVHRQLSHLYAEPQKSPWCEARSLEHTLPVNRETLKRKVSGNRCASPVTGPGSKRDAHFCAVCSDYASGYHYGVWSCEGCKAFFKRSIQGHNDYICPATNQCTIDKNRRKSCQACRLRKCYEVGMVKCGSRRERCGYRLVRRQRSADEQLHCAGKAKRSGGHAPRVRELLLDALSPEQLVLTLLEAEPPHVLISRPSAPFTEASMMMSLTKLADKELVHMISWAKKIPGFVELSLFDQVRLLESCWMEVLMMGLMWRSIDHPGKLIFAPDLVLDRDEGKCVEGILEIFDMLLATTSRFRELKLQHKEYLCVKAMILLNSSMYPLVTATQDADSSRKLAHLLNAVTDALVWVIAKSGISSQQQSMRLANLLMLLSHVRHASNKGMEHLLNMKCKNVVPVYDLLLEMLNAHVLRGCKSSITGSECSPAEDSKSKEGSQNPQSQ

[8] = target: T2, Glucocorticoid receptor (Homo sapiens, UniProt P04150); details: hela s3; further: in other assays of this panel Not Active means under 50% inhibition at 10 µM
T2 sequence (P04150 whole entry): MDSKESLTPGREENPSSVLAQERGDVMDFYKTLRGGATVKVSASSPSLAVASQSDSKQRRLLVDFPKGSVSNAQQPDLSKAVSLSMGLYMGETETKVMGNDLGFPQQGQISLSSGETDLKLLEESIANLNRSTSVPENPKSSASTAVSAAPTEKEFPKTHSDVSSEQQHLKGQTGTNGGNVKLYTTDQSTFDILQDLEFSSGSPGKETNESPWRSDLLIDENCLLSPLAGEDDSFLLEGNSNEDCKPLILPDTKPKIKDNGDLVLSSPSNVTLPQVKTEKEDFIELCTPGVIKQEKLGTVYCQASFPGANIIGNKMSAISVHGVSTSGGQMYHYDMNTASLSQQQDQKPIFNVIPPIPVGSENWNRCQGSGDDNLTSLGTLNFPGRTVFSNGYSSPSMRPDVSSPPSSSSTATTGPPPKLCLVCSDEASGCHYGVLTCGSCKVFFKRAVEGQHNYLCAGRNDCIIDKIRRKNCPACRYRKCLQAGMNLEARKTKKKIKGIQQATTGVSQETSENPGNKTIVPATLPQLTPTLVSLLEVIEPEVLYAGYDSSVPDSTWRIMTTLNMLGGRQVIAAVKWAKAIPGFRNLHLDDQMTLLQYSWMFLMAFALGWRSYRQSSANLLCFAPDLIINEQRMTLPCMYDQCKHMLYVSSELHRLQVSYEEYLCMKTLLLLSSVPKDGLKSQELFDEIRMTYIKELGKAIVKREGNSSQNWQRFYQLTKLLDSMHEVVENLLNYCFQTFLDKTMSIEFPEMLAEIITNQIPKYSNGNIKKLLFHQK

Beta-2 adrenergic receptor, sequence (P07550 whole entry): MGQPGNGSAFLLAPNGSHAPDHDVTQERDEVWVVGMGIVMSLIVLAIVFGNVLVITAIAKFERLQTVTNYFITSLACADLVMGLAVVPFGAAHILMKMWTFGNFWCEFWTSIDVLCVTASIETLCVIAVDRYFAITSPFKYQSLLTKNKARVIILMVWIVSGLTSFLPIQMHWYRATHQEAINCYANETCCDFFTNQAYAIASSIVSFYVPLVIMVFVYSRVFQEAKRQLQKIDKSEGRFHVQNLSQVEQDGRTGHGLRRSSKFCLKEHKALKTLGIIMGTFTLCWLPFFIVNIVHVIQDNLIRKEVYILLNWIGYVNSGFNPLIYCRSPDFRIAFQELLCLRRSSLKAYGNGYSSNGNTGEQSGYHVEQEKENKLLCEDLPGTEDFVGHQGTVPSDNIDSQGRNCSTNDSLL

| SMILES | IC50 ([1]; cho) | IC50 [2] | IC50 [3] | Ki [3] | IC50 [4] | IC50 [5] | Ki [5] | IC50 ([6]; read-out: IC50) [nM] | IC50 [7] | IC50 [8] | IC50 [6] | Ki [4] | IC50 ([1]; read-out: IC50) [nM] | Ki ([1]; read-out: Ki) [nM] |
| --- | --- | --- | --- | --- | --- | --- | --- | --- | --- | --- | --- | --- | --- | --- |
| O=C(c1ccccc1C(F)(F)F)N1CCC(Cc2ccccc2)CC1 | Not Active | Not Active | Not Active | Not Active | Not Active | Not Active | Not Active | 715 | Not Active | Not Active | – | – | – | – |
| Nc1ccc2c3c(cccc13)C(=O)NC2=O | Not Active | Not Active | Not Active | Not Active | Not Active | Not Active | Not Active | – | Not Active | Not Active | Not Active | – | – | – |
| O=c1cnn([C@@H]2O[C@H](CO)[C@@H](O)[C@H]2O)c(=O)[nH]1 [6-AZAURIDINE] | Not Active | Not Active | Not Active | Not Active | Not Active | Not Active | Not Active | – | Not Active | Not Active | Not Active | – | – | – |
| NCCCC(O)(P(=O)(O)O)P(=O)(O)O [ALENDRONIC ACID] | Not Active | Not Active | Not Active | Not Active | Not Active | Not Active | Not Active | – | Not Active | Not Active | Not Active | – | – | – |
| Cc1nnc2n1-c1ccc(Cl)cc1C(c1ccccc1)=NC2 [ALPRAZOLAM] | Not Active | Not Active | Not Active | Not Active | Not Active | Not Active | Not Active | – | Not Active | Not Active | Not Active | – | – | – |
| CCC1(CCC(C)C)C(=O)NC(=O)NC1=O [AMOBARBITAL] | Not Active | Not Active | Not Active | Not Active | – | Not Active | Not Active | – | Not Active | – | Not Active | Not Active | – | – |
| COc1ccc(C2C(=O)c3ccccc3C2=O)cc1 [ANISINDIONE] | Not Active | Not Active | Not Active | Not Active | Not Active | Not Active | Not Active | – | Not Active | Not Active | Not Active | – | – | – |
| O=C1O[C@H]([C@@H](O)CO)C(O)=C1O [ASCORBIC ACID] | Not Active | Not Active | Not Active | Not Active | Not Active | Not Active | Not Active | – | Not Active | Not Active | Not Active | – | – | – |
| CN1[C@@H]2CC[C@H]1C[C@@H](OC(=O)C(CO)c1ccccc1)C2 (some centres undefined) [ATROPINE] | Not Active | Not Active | Not Active | Not Active | Not Active | Not Active | Not Active | – | Not Active | Not Active | Not Active | – | – | – |
| CC(C(=O)O)c1ccc2oc(-c3ccc(Cl)cc3)nc2c1 (centres undefined) [BENOXAPROFEN] | Not Active | Not Active | Not Active | Not Active | Not Active | Not Active | Not Active | – | Not Active | Not Active | Not Active | – | – | – |
| CC(=O)Oc1ccc(C(c2ccc(OC(C)=O)cc2)c2ccccn2)cc1 [BISACODYL] | Not Active | Not Active | Not Active | Not Active | Not Active | Not Active | Not Active | – | Not Active | – | Not Active | – | – | – |
| Cc1cc2c(OCC(CNC(C)(C)C)OC(=O)c3ccccc3)cccc2[nH]1 (centres undefined) [BOPINDOLOL] | – | Not Active | Not Active | Not Active | Not Active | Not Active | Not Active | – | Not Active | Not Active | Not Active | – | 20 | 14 |
| Brc1c(NC2=NCCN2)ccc2nccnc12 [BRIMONIDINE] | Not Active | Not Active | Not Active | Not Active | Not Active | Not Active | Not Active | – | Not Active | Not Active | Not Active | – | – | – |
| CN/C(=N\CCSCc1nc[nH]c1C)NC#N [CIMETIDINE] | Not Active | Not Active | Not Active | Not Active | Not Active | Not Active | Not Active | – | Not Active | – | Not Active | – | – | – |
| CCC(=O)O[C@]1(C(=O)CCl)[C@@H](C)C[C@H]2[C@@H]3CCC4=CC(=O)C=C[C@]4(C)[C@@]3(F)[C@@H](O)C[C@@]21C [CLOBETASOL PROPIONATE] | Not Active | Not Active | Not Active | Not Active | Not Active | Not Active | Not Active | – | Not Active | – | Not Active | – | – | – |
| C[C@@H]1C[C@H]2[C@@H]3CCC4=CC(=O)C=C[C@]4(C)[C@@]3(F)[C@@H](O)C[C@]2(C)[C@H]1C(=O)CO [DESOXIMETASONE] | Not Active | Not Active | Not Active | Not Active | Not Active | Not Active | Not Active | – | Not Active | – | Not Active | – | – | – |
| COc1cc([C@@H]2c3cc4c(cc3[C@@H](O[C@@H]3O[C@@H]5CO[C@@H](C)O[C@H]5[C@H](O)[C@H]3O)[C@H]3COC(=O)[C@H]23)OCO4)cc(OC)c1O [ETOPOSIDE] | Not Active | Not Active | Not Active | Not Active | Not Active | Not Active | Not Active | – | Not Active | – | Not Active | – | – | – |
| CC(C(=O)O)c1cccc(Oc2ccccc2)c1 (centres undefined) [FENOPROFEN] | Not Active | Not Active | Not Active | Not Active | Not Active | Not Active | Not Active | – | Not Active | – | Not Active | – | – | – |
| CC(=O)[C@@]1(O)CC[C@H]2[C@@H]3CCC4=CC(=O)CC[C@]4(C)[C@H]3CC[C@@]21C [HYDROXYPROGESTERONE] | Not Active | Not Active | Not Active | Not Active | Not Active | Not Active | Not Active | – | Not Active | – | Not Active | – | – | – |
| CC(C)NCC(O)COc1cccc2[nH]ccc12 (centres undefined) [PINDOLOL] | – | Not Active | Not Active | Not Active | Not Active | Not Active | Not Active | – | Not Active | Not Active | Not Active | – | – | – |
| C[C@]12C=CC(=O)C=C1CC[C@@H]1[C@@H]2[C@@H](O)C[C@@]2(C)[C@H]1CC[C@]2(O)C(=O)CO [PREDNISOLONE] | Not Active | Not Active | Not Active | Not Active | Not Active | Not Active | Not Active | – | Not Active | – | Not Active | – | – | – |
| CC(=O)[C@H]1[C@H](C#N)C[C@H]2[C@@H]3CC=C4C[C@@H](O)CC[C@]4(C)[C@H]3CC[C@@]21C [PREGNENOLONE CARBONITRILE] | Not Active | Not Active | Not Active | Not Active | Not Active | Not Active | Not Active | – | Not Active | – | Not Active | – | – | – |
| CC(C)c1cccc(C(C)C)c1O [PROPOFOL] | Not Active | Not Active | Not Active | Not Active | Not Active | Not Active | Not Active | – | Not Active | – | Not Active | – | – | – |
